We go through 26 compounds from patent US11345681B1, “Inhibitors of fibroblast growth factor receptor kinases” (Kinnate Biopharma Inc., priority 2020, dated 2022).

In this assay the target is Wild type FGFR2 (Homo sapiens (Human), UniProt P21802). The assay is described as follows: FGFR2 kinase assay (fluorescence-based microfluidic mobility shift assay). Type of assay: biochemical. The following applies: wild type FGFR2 0.06 nM, 100 μM ATP, 80 minutes at room temperature.

The IC50 is the concentration that gives 50% inhibition.

Sequence of Wild type FGFR2 (P21802 22-821): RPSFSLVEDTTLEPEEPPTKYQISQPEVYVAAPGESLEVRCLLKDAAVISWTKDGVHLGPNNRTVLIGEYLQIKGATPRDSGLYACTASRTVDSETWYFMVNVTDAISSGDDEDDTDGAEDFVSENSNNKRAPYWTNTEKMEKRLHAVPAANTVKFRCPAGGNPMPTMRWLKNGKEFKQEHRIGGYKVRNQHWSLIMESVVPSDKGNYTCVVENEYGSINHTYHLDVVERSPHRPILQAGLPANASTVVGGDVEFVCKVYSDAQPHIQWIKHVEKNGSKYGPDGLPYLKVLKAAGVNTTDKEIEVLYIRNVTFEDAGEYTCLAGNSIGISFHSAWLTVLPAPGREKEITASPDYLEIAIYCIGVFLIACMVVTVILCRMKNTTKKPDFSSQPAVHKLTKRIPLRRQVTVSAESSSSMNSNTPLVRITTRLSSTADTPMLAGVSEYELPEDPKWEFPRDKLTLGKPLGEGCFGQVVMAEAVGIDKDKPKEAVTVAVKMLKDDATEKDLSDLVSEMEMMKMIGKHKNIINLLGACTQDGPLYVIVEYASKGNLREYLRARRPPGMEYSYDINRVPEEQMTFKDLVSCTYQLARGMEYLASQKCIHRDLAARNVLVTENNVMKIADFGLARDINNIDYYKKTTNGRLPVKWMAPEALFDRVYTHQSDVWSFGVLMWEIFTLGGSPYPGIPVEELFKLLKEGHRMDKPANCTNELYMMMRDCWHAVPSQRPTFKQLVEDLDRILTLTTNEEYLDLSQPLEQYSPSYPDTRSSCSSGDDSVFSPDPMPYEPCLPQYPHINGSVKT

Regarding `C=CC(=O)N1C[C@@H](n2nc(C#Cc3c(F)cc4c(nc(C)n4CC(F)(F)F)c3F)c(C(N)=O)c2NC)C[C@@H]1COC` [Example 35, 1-((3S,5R)-1-acryloyl-5-(methoxymethyl)pyrrolidin-3-yl)-3-((4,6-difluoro-2-methyl-1-(2,2,2-trifluoroethyl)-1H-benzo[d]imidazol-5-yl)ethynyl)-5-(methylamino)-1H-pyrazole-4-carboxamide], the IC50 (class symbols) was no more than 100 nM.
In the case of `C=CC(=O)N1C[C@@H](n2nc(C#Cc3cc4ncn(C5COC5)c4cc3Cl)c(C(N)=O)c2NC)C[C@@H]1COC` [Example 248], the IC50 (class symbols) was no more than 100 nM.
In the case of `C=CC(=O)N1C[C@@H](n2nc(C#Cc3cc4nc(C5CC5)n(C)c4cn3)c(C(N)=O)c2NC)C[C@@H]1COC` [Example 63, 3-(2-[2-Cyclopropyl-3-methylimidazo[4,5-c]pyridin-6-yl]ethynyl)-1-[(3S,5R)-5-(methoxymethyl)-1-(prop-2-enoyl)pyrrolidin-3-yl]-5-(methylamino)pyrazole-4-carboxamide], the IC50 (given as numeric bound) was greater than 500 nM.
`C=CC(=O)N1C[C@@H](n2nc(C#Cc3ccc4c(cnn4CC)c3)c(C(N)=O)c2NC)C[C@@H]1COC` [Example 14]: the IC50 (class symbols) is no more than 100 nM.
Take `C=CC(=O)N1C[C@@H](n2nc(C#Cc3c(F)cc4c(ncn4C4CC4)c3F)c(C(N)=O)c2NC)CC1C` (stereo in doubt) [Example 159, 3-[2-(1-Cyclopropyl-4,6-difluoro-1,3-benzodiazol-5-yl)ethynyl]-1-[(3S,5R)-5-methyl-1-(prop-2-enoyl)pyrrolidin-3-yl]-5-(methylamino)pyrazole-4-carboxamide]: under “class symbols”, the half-inhibitory concentration (IC50) is no more than 100 nM.
Take `C=CC(=O)N1C[C@@H](n2nc(C#Cc3cc4nc(C5CC5)n(C)c4cc3F)c(C(N)=O)c2NC)C[C@@H]1COC` [Example 62, 3-[2-(2-Cyclopropyl-6-fluoro-1-methyl-1,3-benzodiazol-5-yl)ethynyl]-1-[(3S,5R)-5-(methoxymethyl)-1-(prop-2-enoyl)pyrrolidin-3-yl]-5-(methylamino)pyrazole-4-carboxamide]: the half-maximal inhibitory concentration (IC50) (class symbols) was no more than 100 nM.
For `C=CC(=O)N1C[C@@H](n2nc(C#Cc3cc4nc(C)n(C5CC5)c4cc3F)c(C(N)=O)c2NC)C[C@@H]1[C@@H](C)O` [Example 224, 3-[2-(1-Cyclopropyl-6-fluoro-2-methyl-1,3-benzodiazol-5-yl)ethynyl]-1-[(3S,5R)-5-[(1R)-1-hydroxyethyl]-1-(prop-2-enoyl)pyrrolidin-3-yl]-5-(methylamino)pyrazole-4-carboxamide], the IC50 (class symbols) was no more than 100 nM.
Consider `C=CC(=O)N1CC[C@H](n2nc(C#Cc3c(F)cc4c(ncn4CC)c3F)c(C(N)=O)c2NCC2CC2)C1` [Example 118, 5-[(Cyclopropylmethyl)amino]-3-[2-(1-ethyl-4,6-difluoro-1,3-benzodiazol-5-yl)ethynyl]-1-[(3S)-1-(prop-2-enoyl)pyrrolidin-3-yl]pyrazole-4-carboxamide], for which the 50% inhibitory concentration (IC50) (class symbols) was no more than 100 nM.
On the same count and under the same terms, the value for `C=CC(=O)N1C[C@@H](n2nc(C#Cc3c(F)cc4c(ncn4C4CC4)c3F)c(C(N)=O)c2NC)C[C@@H]1COC(F)F` [Example 156, 1-((3S,5R)-1-Acryloyl-5-((difluoromethoxy)methyl)pyrrolidin-3-yl)-3-((1-cyclopropyl-4,6-difluoro-1H-benzo[d]imidazol-5-yl)ethynyl)-5-(methylamino)-1H-pyrazole-4-carboxamide] was no more than 100 nM; that for `C=CC(=O)N1C[C@@H](n2nc(C#Cc3cn4ncnc4cc3F)c(C(N)=O)c2NC)C[C@@H]1COC` [Example 122, 3-(2-[7-Fluoro-[1,2,4]triazolo[1,5-a]pyridin-6-yl]ethynyl)-1-[(3S,5R)-5-(methoxymethyl)-1-(prop-2-enoyl)pyrrolidin-3-yl]-5-(methylamino)pyrazole-4-carboxamide] was 100 to 1000 nM; that for `C=CC(=O)N1C[C@@H](n2nc(C#Cc3cc4ncn(C(F)F)c4cc3F)c(C(N)=O)c2NC)C[C@@H]1COC` [Example 77, 3-[2-[1-(Difluoromethyl)-6-fluoro-1,3-benzodiazol-5-yl]ethynyl]-1-[(3S,5R)-5-(methoxymethyl)-1-(prop-2-enoyl)pyrrolidin-3-yl]-5-(methylamino)pyrazole-4-carboxamide] was no more than 100 nM.
Regarding `C=CC(=O)N1C[C@@H](n2nc(C#Cc3ccc4c(c3)ncn4C3CC3)c(C(N)=O)c2NC)C[C@@H]1COC(F)F` [Example 155, 3-[2-(1-Cyclopropyl-1,3-benzodiazol-5-yl)ethynyl]-1-[(3S,5R)-5-[(difluoromethoxy)methyl]-1-(prop-2-enoyl)pyrrolidin-3-yl]-5-(methylamino)pyrazole-4-carboxamide], the IC50 (class symbols) was no more than 100 nM.
As to `C=CC(=O)N1C[C@@H](n2nc(C#Cc3cc4ncn(C5CC5)c4cc3F)c(C(N)=O)c2NC)C[C@@H]1COC(F)F` [Example 161, 1-((3S,5R)-1-acryloyl-5-((difluoromethoxy)methyl)pyrrolidin-3-yl)-3-((1-cyclopropyl-6-fluoro-1H-benzo[d]imidazol-5-yl)ethynyl)-5-(methylamino)-1H-pyrazole-4-carboxamide], where the note is “class symbols”, the IC50 is no more than 100 nM.
As for `C=CC(=O)N1C[C@@H](n2nc(C#Cc3cc4ncn(C(F)F)c4cc3Cl)c(C(N)=O)c2NC)C[C@@H]1COC` [Example 94, 3-[2-[6-Chloro-1-(difluoromethyl)-1,3-benzodiazol-5-yl]ethynyl]-1-[(3S,5R)-5-(methoxymethyl)-1-(prop-2-enoyl)pyrrolidin-3-yl]-5-(methylamino)pyrazole-4-carboxamide], under “class symbols”, the IC50 was no more than 100 nM.
On to `C=CC(=O)N1C[C@@H](n2nc(C#Cc3ccc4c(cnn4C)c3)c(C(N)=O)c2NC)C[C@@H]1COC` [Example 8], for which, where the note is “class symbols”, the IC50 was no more than 100 nM.
As for `C=CC(=O)N1C[C@@H](n2nc(C#Cc3cc4ncn(C5CC5)c4cc3F)c(C(N)=O)c2NCC)C[C@@H]1COC` [Example 205, 1-((3S,5R)-1-Acryloyl-5-(methoxymethyl)pyrrolidin-3-yl)-3-((1-cyclopropyl-6-fluoro-1H-benzo[d]imidazol-5-yl)ethynyl)-5-(ethylamino)-1H-pyrazole-4-carboxamide], where the note is “class symbols”, the IC50 was no more than 100 nM.
Still for that read-out and setting: the value for `C=CC(=O)N1C[C@@H](n2nc(C#Cc3cc4nc(C)n(C5CC5)c4cc3Cl)c(C(N)=O)c2NC)C[C@@H]1[C@@H](C)O` [Example 220, 1-((3S,5R)-1-Acryloyl-5-((R)-1-hydroxyethyl)pyrrolidin-3-yl)-3-((6-chloro-1-cyclopropyl-2-methyl-1H-benzo[d]imidazol-5-yl)ethynyl)-5-(methylamino)-1H-pyrazole-4-carboxamide] was no more than 100 nM; that for `C=CC(=O)N1C[C@@H](n2nc(C#Cc3cc4ncn(C5CC5)c4cc3Cl)c(C(N)=O)c2NC)C[C@@H]1[C@H](C)O` [Example 223, 3-[2-(6-chloro-1-cyclopropyl-1,3-benzodiazol-5-yl)ethynyl]-1-[(3S,5R)-5-[(1S)-1-hydroxyethyl]-1-(prop-2-enoyl)pyrrolidin-3-yl]-5-(methylamino)pyrazole-4-carboxamide] was no more than 100 nM.
In the case of `C=CC(=O)N1C[C@@H](n2nc(C#Cc3cc4nc[nH]c4cc3F)c(C(N)=O)c2NC)C[C@@H]1COC` [Example 90, 3-[2-(6-Fluoro-1H-1,3-benzodiazol-5-yl)ethynyl]-1-[(3S,5R)-5-(methoxymethyl)-1-(prop-2-enoyl)pyrrolidin-3-yl]-5-(methylamino)pyrazole-4-carboxamide], the concentration for half-maximal inhibition (IC50) (class symbols) is no more than 100 nM.
On the same count and under the same terms, the value for `C=CC(=O)N1CC[C@H](n2nc(C#Cc3c(F)cc4c(ncn4C4CC4)c3F)c(C(N)=O)c2N)C1` [Example 190, 5-Amino-3-[2-(1-cyclopropyl-4,6-difluoro-1,3-benzodiazol-5-yl)ethynyl]-1-[(3S)-1-(prop-2-enoyl)pyrrolidin-3-yl]pyrazole-4-carboxamide] was no more than 100 nM; that for `C=CC(=O)N1C[C@@H](n2nc(C#Cc3cc4nc(C)n(C)c4c(F)c3Cl)c(C(N)=O)c2NC)C[C@@H]1COC` [Example 128, 3-[2-(6-Chloro-7-fluoro-1,2-dimethyl-1,3-benzodiazol-5-yl)ethynyl]-1-[(3S,5R)-5-(methoxymethyl)-1-(prop-2-enoyl)pyrrolidin-3-yl]-5-(methylamino)pyrazole-4-carboxamide] was no more than 100 nM.
On the same count and under the same terms, the value for `C=CC(=O)N1C[C@@H](n2nc(C#Cc3c(F)cc4c(ncn4CC(F)(F)F)c3F)c(C(N)=O)c2NC)CC1COC` (stereo in doubt) [Example 34, 1-((3S,5S)-1-acryloyl-5-(methoxymethyl)pyrrolidin-3-yl)-3-((4,6-difluoro-1-(2,2,2-trifluoroethyl)-1H-benzo[d]imidazol-5-yl)ethynyl)-5-(methylamino)-1H-pyrazole-4-carboxamide] was no more than 100 nM.
`C=CC(=O)N1C[C@@H](n2nc(C#Cc3ccc4c(nc(C5CC5)n4C)c3F)c(C(N)=O)c2NC)C[C@@H]1COC` [Example 51, 1-((3S,5R)-1-Acryloyl-5-(methoxymethyl)pyrrolidin-3-yl)-3-((2-cyclopropyl-4-fluoro-1-methyl-1H-benzo[d]imidazol-5-yl)ethynyl)-5-(methylamino)-1H-pyrazole-4-carboxamide]: the IC50 (class symbols) is no more than 100 nM.
As to `C=CC(=O)N1C[C@@H](n2nc(C#Cc3cc4ncn(CC)c4cc3Cl)c(C(N)=O)c2NC)C[C@@H]1CO` [Example 191, 3-[2-(6-Chloro-1-ethyl-1,3-benzodiazol-5-yl)ethynyl]-1-[(3S,5R)-5-(hydroxymethyl)-1-(prop-2-enoyl)pyrrolidin-3-yl]-5-(methylamino)pyrazole-4-carboxamide], the IC50 (class symbols) was no more than 100 nM.
Take `C=CC(=O)N1C[C@@H](n2nc(C#Cc3cccn4cncc34)c(C(N)=O)c2NC)C[C@@H]1COC` [Example 277, 3-(2-{Imidazo[1,5-a]pyridin-8-yl}ethynyl)-1-[(3S,5R)-5-(methoxymethyl)-1-(prop-2-enoyl)pyrrolidin-3-yl]-5-(methylamino)pyrazole-4-carboxamide]: the IC50 (class symbols) was no more than 100 nM.
Take `C=CC(=O)N1C[C@@H](n2nc(C#Cc3cc4ncn(C)c4c(F)c3F)c(C(N)=O)c2NC)C[C@@H]1COC` [Example 101, 3-[2-(6,7-Difluoro-1-methyl-1,3-benzodiazol-5-yl)ethynyl]-1-[(3S,5R)-5-(methoxymethyl)-1-(prop-2-enoyl)pyrrolidin-3-yl]-5-(methylamino)pyrazole-4-carboxamide]: the IC50 (class symbols) is no more than 100 nM.
